In patent US11866394B2, “Prodrugs of hydroxamate-based GCPII inhibitors” (The Johns Hopkins University, priority 2016, dated 2024):
Entries after “also recorded” stand apart in the source; their conditions may differ. Like-named read-outs stand apart in the source and are kept apart here.

Assays:
[1] = In vitro plasma metabolite identification studies; format: in vitro ADME; conditions: 10 μM, 37° C., 60 min incubation
Experimental: Plasma stability studies were conducted in mouse plasma as previously described. (Majer, et al., 2016) Compound 1 and prodrugs (12, 23 and 30) (10 μM) were spiked in plasma and incubated in an orbital shaker at 37° C. At zero and 60 min post incubation, 100 μL aliquots of the mixture in triplicate were removed and the reaction quenched by addition of two times the volume of ice cold acetonitrile spiked with the internal standard (losartan 5 μM). The samples were vortexed for 30 s and centrifuged at 12000 g for 10 min. Supernatant (50 μL) was diluted with 50 μL water and transferred to a 250 μL polypropylene vial sealed with a Teflon cap. Prodrug disappearance and metabolite identification were analyzed over time using an Agilent 1260 HPLC coupled to a ESITOF Agilent 6530 with Agilent Jet Stream Technology (Agilent Technologies, Santa Clara, CA). Samples were separated on a Waters 1.7 μm, C18, 100×2.1 column at a flow rate 0.3 mL/min. […] The mass spectrometry instrument was operated in a negative or positive (for JV-2946) ion mode with a voltage of +3.00 kV applied to the capillary. The temperature, the flow rate of the nitrogen drying gas, the pressure of the nitrogen nebulizing gas, the temperature, and the flow rate of the sheath gas were set at 325° C., 10 L/min, 40 psi, 390° C., and 11/min, respectively.

[2] = cited from earlier work; for oral bioavailability: background statement
[3] = tested on: rat chronic constriction injury (CCI) model of neuropathic pain; conditions: cited from earlier work
rhGCPII = rhGCPII (Homo sapiens, UniProt Q04609); assay: GCPII inhibition, radioenzymatic assay with 3H-NAAG; format: biochemical; conditions: for IC50: rhGCPII, 3H-NAAG, pH 8.0, read-out: IC50, inhibition potency against GCPII
Experimental: Inhibition constants of prodrugs were determined using the radioenzymatic assay with 3HNAAG (radiolabeled at the terminal glutamate) as has been previously described (Novakova, et al., J. Med. Chem, 2016). Briefly, rhGCPII (30 ng/mL) was preincubated in the presence of inhibitors at varying concentrations, in 20 mM Tris, 150 mM NaCl, pH 8.0, for 15 min at 37° C. in the total volume of 80 μL. The reaction was initiated by the addition of 40 μL of the mixture of 0.31 μM NAAG (Sigma) and 15 nM 3H-NAAG (50 Ci/mmol in Tris buffer, PerkinElmer) to the total reaction volume of 120 μL. Following 20 min incubation, the reaction was terminated by addition of 120 μL of potassium phosphate (200 Mm), EDTA (50 Mm) and β-mercaptoethanol (2Mm), pH 7.4. The released glutamate was separated by ion-exchange chromatography and quantified by liquid scintillation counting. GraphPad Prism software (GraphPad Software, San Diego, CA, USA), was used for data fitting and IC50 values were calculated from the inhibition curves where applicable.

[4] = In vitro metabolic stability in human plasma; format: in vitro ADME; conditions: 37° C.
Experimental: (§1) For metabolic stability, plasma (mouse, and human) and liver microsomes (mouse and human) were used. For stability, prodrugs (10 μM) were spiked in each matrix and incubated in an orbital shaker at 37° C. At predetermined times (0, 30 and 60 min), 100 μL aliquots of the mixture in triplicate were removed and the reaction quenched by addition of three times the volume of ice cold acetonitrile spiked with the internal standard (losartan 5 μM). The samples were vortexed for 30 s and centrifuged 12000 g for 10 min. 50 μL supernatant diluted with 50 μL water was transferred to a 250 μL polypropylene vial sealed with a Teflon cap. Prodrug disappearance was monitored over time using a liquid chromatography and tandem mass spectrometry (LC/MS/MS) method as described below.
(§2) For LC/MS/MS, prodrugs were separated with Thermo Scientific Accela UPLC system coupled to Accela open autosampler on an Agilent C18 (100×2.1 mm id) UPLC column. The autosampler was temperature controlled and operating at 10° C. […] The column effluent was monitored using TSQ Vantage triple-quadrupole mass spectrometric detector, equipped with an electrospray probe set in the positive ionization mode. […]
(§3) For quantification of compound remaining, disappearance of prodrugs was measured from ratio of peak areas of analyte to IS. Percentage remaining was calculated in the following manner: […]

[5] = Subcutaneous plasma and sciatic nerve pharmacokinetic studies in mice; format: in vivo; conditions: 10 mg/kg equivalent s.q., 10-120 min post dose
Experimental: Bioanalysis of parent and intact prodrug in plasma and tissues: Prior to extraction, frozen samples were thawed on ice. For plasma, 50 μL of the sample was transferred into siliconized microcentrifuge tubes. For sciatic nerves, the samples were weighed in a 1.7 mL tubes and homogenized in 5× the volume of methanol. The calibration curves were prepared using naïve plasma and sciatic nerves in a concentration range of 50-10000 pmol/g or pmol/mL. Sample preparation involved a single liquid extraction by addition of 300 μL of methanol with internal standard (losartan 200 nM in methanol), followed by vortexing for 30 s and then centrifugation at 10,000×g for 10 min. Supernatant (about 250 μL) was transferred and evaporated to dryness at 40° C. under a gentle stream of nitrogen. The residue was reconstituted with 50 μL of 30% acetonitrile and analysed by LC/MS/MS.
Chromatographic analysis was performed using an Accela™ ultra high-performance system consisting of an analytical pump, and an autosampler coupled with TSQ Vantage mass spectrometer (Thermo Fisher Scientific Inc., Waltham, MA). […] The mobile phase used was composed of 0.1% formic acid in acetonitrile and 0.1% formic acid in H2O with gradient elution, starting with 10% (organic) linearly increasing to 99% up to 2.5 min, maintaining at 99% (2.5-3.5 min) and reequlibrating to 10% by 4.5 min. The total run time for each analyte was 4.5 min. The mass transitions (M−H)− used for Compound 50 were 280.077>175.168, 203.156; and for losartan were 420.895>127.040, 179.108.

[6] = tested on: rat chronic constriction injury (CCI) model of neuropathic pain; assay: Chronic constrictive injury (CCI) model of neuropathic pain, thermal hyperalgesia; format: in vivo
Text: All experimental protocols were approved by the Institutional Animal Care and Use Committee at Johns Hopkins University (Baltimore, MD) and adhered to all of the applicable institutional and governmental guidelines for the humane treatment of laboratory animals. Male Sprague-Dawley rats (200-250 g; n=10-15 per group) were subjected to peripheral neuropathy injury by constriction of the sciatic nerve performed according to methods described previously. (Novakova, et al., 2016; Bennett, et al., 1988; Attal, et al., 1990) In brief, the common sciatic nerve was exposed and 4 ligatures (4.0 chromic gut) tied loosely around it with 1 mm spacing. Wound clips were used to close wounds and animals were returned to home cages for recovery. Hyperalgesia testing was initiated 10 days post-surgery. Pain sensitivity was assessed by determining withdrawal latencies in response to a constant thermal stimulus directed to the plantar surface of the hind paw using a Basile Plantar apparatus (Ugo Basile, Vaarese, Italy) according to the method described by Hargreaves et al. (Hargreaves, et al., 1988) Apparatus was calibrated so that normal rats respond to the stimulus within 15 sec of application. Withdrawal latency (i.e., the time taken for the rat to withdraw its paw from the heat source) was measured to the nearest 0.1 sec. The “difference in score” was calculated by subtracting the average latency of the paw on the non-ligated versus ligated side. Each animal was tested during two experimental sessions per week, with three days allowed to elapse between test sessions. Test agents, prodrug 12 (3 mg/kg equivalent of 1), or gabapentin (50 mg/kg and 100 mg/kg po) as a positive control were dosed daily throughout the study via oral gavage and one hour before testing on experimental days. Statistical analysis with students t-test was used to determine differences between control and treatment group.

[7] = In vitro metabolic stability in mouse plasma; format: in vitro ADME; conditions: 37° C.
Experimental: as §1, §2, §3

[8] = Stability testing under GCPII enzyme assay conditions; format: physicochemical; conditions: 30 m in aqueous buffer; pH 8.0
Experimental: Compound 1 and its six prodrugs 7, 12, 17, 23, 25, and 30 were tested for their inhibition potency against GCPII. […] Considering structural data on the compound 1/GCPII complex reported previously (Novakova, et al., J. Med. Chem, 2016) the lack of inhibitory potency of the prodrugs is likely due to the inability of the modified hydroxamate function to chelate active-site zinc ions.

rhGCPII, sequence (Q04609 whole entry): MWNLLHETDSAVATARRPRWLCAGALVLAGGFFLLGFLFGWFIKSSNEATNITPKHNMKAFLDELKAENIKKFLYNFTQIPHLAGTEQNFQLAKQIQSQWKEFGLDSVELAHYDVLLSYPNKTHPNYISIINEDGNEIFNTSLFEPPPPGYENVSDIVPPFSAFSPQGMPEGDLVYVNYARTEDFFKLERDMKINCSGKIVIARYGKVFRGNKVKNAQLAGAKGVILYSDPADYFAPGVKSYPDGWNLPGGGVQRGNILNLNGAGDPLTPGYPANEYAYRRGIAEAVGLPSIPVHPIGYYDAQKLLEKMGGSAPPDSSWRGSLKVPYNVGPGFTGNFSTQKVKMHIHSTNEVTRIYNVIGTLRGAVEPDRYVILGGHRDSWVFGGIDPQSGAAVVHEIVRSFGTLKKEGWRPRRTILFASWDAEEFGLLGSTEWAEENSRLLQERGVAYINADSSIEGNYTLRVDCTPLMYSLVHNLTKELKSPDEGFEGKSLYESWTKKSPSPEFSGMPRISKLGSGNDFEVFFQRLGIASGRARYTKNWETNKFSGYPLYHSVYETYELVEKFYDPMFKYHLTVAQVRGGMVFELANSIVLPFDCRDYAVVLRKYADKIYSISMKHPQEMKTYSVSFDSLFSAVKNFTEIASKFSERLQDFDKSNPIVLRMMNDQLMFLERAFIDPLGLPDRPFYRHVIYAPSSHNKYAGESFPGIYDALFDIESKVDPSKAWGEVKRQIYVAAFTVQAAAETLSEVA

O=C(CCC(Cc1ccc(C(=O)O)cc1)C(=O)O)NO (stereo not drawn) [Compound 1, 4-Carboxy-α-[3-(hydroxyamino)-3-oxopropyl]-benzenepropanoic acid]
stability / prodrug disappearance in mouse plasma [1]: completely stable
distribution to sciatic nerves ([2]; Novakova, et al., 2016): good distribution to sciatic nerves
oral bioavailability [2]: poor oral bioavailability
analgesic effects in the CCI model ([3]; 10 mg/kg/day oral dosing, previously shown): analgesic effects
first day with significantly reduced thermal hyperalgesia ([3]; oral 10 mg/kg/day (Novakova, et al., 2016)): 8 days
IC50 (rhGCPII): 44 nM

O=C(O)CCC(CP(=O)(O)O)C(=O)O (stereo not drawn) [Compound 2-PMPA, 2-phosphonomethyl pentanedioic acid]
oral bioavailability [2]: negligible oral availability

CC(=O)Oc1ccc(CONC(=O)CCC(Cc2ccc(C(=O)O)cc2)C(=O)O)cc1 (stereo not drawn) [Compound 12, 4-(5-(((4-Acetoxybenzyl)oxy)amino)-2-carboxy-5-oxopentyl)benzoic acid]
stability / prodrug disappearance in mouse plasma [1]: lost the peak corresponding to 12
metabolic stability in human plasma [4]: rapidly metabolized
plasma (systemic) levels of active compound 50 after subcutaneous dosing [5]: high systemic levels
sciatic nerve exposure of active compound 50 after subcutaneous dosing [5]: excellent nerve exposure
response latency to thermal stimulus, sham-operated side ([6]; oral 4.6 mg/kg/day (equivalent of 3 mg/kg/day of 1)): no significant effect on absolute latency; also recorded: did not affect the response latency
antinociceptive effect on thermal hyperalgesia, ligated side ([6]; oral daily, 3 mg/kg dose equivalent of 1 (50), 4.6 mg/kg/day for 12): analgesic efficacy comparable to dose of 10 mg/kg of 1; also recorded: significantly reduced thermal hyperalgesia; also recorded: analgesic efficacy superior to that of oral daily doses of 10 mg/kg of 1; also recorded: efficacious; also recorded: significantly attenuated CCI-induced hyperalgesic state
first day with significantly reduced thermal hyperalgesia ([6]; oral, 3 mg/kg/day equivalent of 1): 4 days
metabolic stability in mouse plasma [7]: rapidly metabolized

Cc1oc(=O)oc1CONC(=O)CCC(Cc1ccc(C(=O)O)cc1)C(=O)O (stereo not drawn) [Compound 17, 4-(2-Carboxy-5-(((5-methyl-2-oxo-1,3-dioxol-4-yl)methoxy)amino)-5-oxopentyl)benzoic acid]
stability under GCPII enzyme assay conditions [8]: partial hydrolysis to 1
fold less potent versus 1 in inhibiting GCPII activity (rhGCPII; compared to compound 1): 12 fold
IC50 (rhGCPII): 540 nM

CCOC(=O)c1ccc(CC(CCC(=O)NOCc2ccc(OC(C)=O)cc2)C(=O)O)cc1 (stereo not drawn) [Compound 23, 5-(((4-Acetoxybenzyl)oxy)amino)-2-(4-(ethoxycarbonyl)benzyl)-5-oxopentanoic acid]
stability / prodrug disappearance in mouse plasma [1]: complete loss of 23

CC(=O)Oc1ccc(CONC(=O)CCC(Cc2ccc(C(=O)OCOC(=O)OC(C)C)cc2)C(=O)O)cc1 (stereo not drawn) [Compound 30, 5-(((4-Acetoxybenzyl)oxy)amino)-2-(4-((((isopropoxycarbonyl)oxy)methoxy)carbonyl)benzyl)-5-oxopentanoic acid]
stability / prodrug disappearance in mouse plasma [1]: completely hydrolyzed
plasma (systemic) levels of active compound 50 after subcutaneous dosing [5]: high systemic levels
sciatic nerve exposure of active compound 50 after subcutaneous dosing [5]: excellent nerve exposure

NCC1(CC(=O)O)CCCCC1 [gabapentin, reference compound]
antinociceptive effect on thermal hyperalgesia, ligated side ([6]; oral 50 mg/kg/day): did not significantly attenuate the hyperalgesic state
antinociceptive effect on thermal hyperalgesia, ligated side ([6]; oral 100 mg/kg/day, 100 mg/kg/day): significantly reversed allodynia; also recorded: significantly attenuated CCI-induced hyperalgesic state
